Measured values reported in PubChem BioAssay AID248 (DTP/NCI, 2004).
Where “and” joins values, the source holds several entries; their conditions need not be identical. Equal values may be shown once. Toxic doses and inconclusive results are not listed. Cut-off read from the data, not from the text of the source: active = T/C of 150% or more; inactive = T/C below 125%.

System: L1210 leukemia ip in BDF1 mice, survival T/C
Assay: NCI In Vivo Anticancer Drug Screen. Data for tumor model L1210 Leukemia (intraperitoneal) in B6D2F1 (BDF1) mice
Details: higher = longer survival
Procedure, shortened: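 Value reflects the ratio of survival in compound-treated mice to survival in vehicle-treated controls, with both groups carrying the same transplanted tumor.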

Measured: T/C

CN(Cc1cnc2nc(N)nc(N)c2n1)c1ccc(C(=O)N[C@@H](CCC(=O)O)C(=O)O)cc1
inactive: endpoint: mean survival time, dose: 0.02 mg/kg/injection, schedule: Q01DX Z (ip), vehicle: saline 94 % of control | endpoint: mean survival time, dose: 0.03 mg/kg/injection, schedule: Q#A X Z (ip), vehicle: saline 107 % of control | endpoint: mean survival time, dose: 0.08 mg/kg/injection, schedule: Q01DX009 (ip), vehicle: sodium bicarbonate 99 % of control and 108 % of control | endpoint: mean survival time, dose: 0.1 mg/kg/injection, schedule: Q03HX008 (ip), vehicle: sodium bicarbonate 105 % of control | endpoint: mean survival time, dose: 0.1 mg/kg/injection, schedule: Q## X008 (other), vehicle: sodium bicarbonate 105 % of control | endpoint: mean survival time, dose: 0.12 mg/kg/injection, schedule: Q01DX Z (ip), vehicle: saline 108 % of control | endpoint: mean survival time, dose: 0.13 mg/kg/injection, schedule: Q01DX Z (sc), vehicle: saline 110 % of control | endpoint: mean survival time, dose: 0.13 mg/kg/injection, schedule: Q03HX016 (ip), vehicle: other 107 % of control | endpoint: mean survival time, dose: 0.15 mg/kg/injection, schedule: Q03HX008 (ip), vehicle: sodium bicarbonate 109 % of control | endpoint: mean survival time, dose: 0.15 mg/kg/injection, schedule: Q## X008 (other), vehicle: sodium bicarbonate 109 % of control | endpoint: mean survival time, dose: 0.19 mg/kg/injection, schedule: Q01DX009 (ip), vehicle: sodium bicarbonate 102 % of control | endpoint: mean survival time, dose: 0.19 mg/kg/injection, schedule: Q## X Z (ip), vehicle: saline 102 % of control | endpoint: mean survival time, dose: 0.38 mg/kg/injection, schedule: Q## X Z (ip), vehicle: saline 111 % of control | endpoint: mean survival time, dose: 0.49 mg/kg/injection, schedule: Q03HX003 (ip), vehicle: other 108 % of control | endpoint: mean survival time, dose: 0.49 mg/kg/injection, schedule: Q03HX004 (ip), vehicle: other 104 % of control | endpoint: mean survival time, dose: 0.49 mg/kg/injection, schedule: Q03HX005 (ip), vehicle: other 107 % of control | endpoint: mean survival time, dose: 0.49 mg/kg/injection, schedule: Q03HX006 (ip), vehicle: other 110 % of control | endpoint: mean survival time, dose: 0.5 mg/kg/injection, schedule: Q01DX006 (iv), vehicle: saline 112 % of control | endpoint: mean survival time, dose: 0.5 mg/kg/injection, schedule: Q07DX003 (ip), vehicle: saline 107 % of control | endpoint: mean survival time, dose: 0.73 mg/kg/injection, schedule: Q01DX001 (ip), vehicle: other 94 % of control | endpoint: mean survival time, dose: 0.73 mg/kg/injection, schedule: Q03HX002 (ip), vehicle: other 104 % of control | endpoint: mean survival time, dose: 0.73 mg/kg/injection, schedule: Q03HX003 (ip), vehicle: other 102 % of control | endpoint: mean survival time, dose: 0.73 mg/kg/injection, schedule: Q03HX004 (ip), vehicle: other 107 % of control | endpoint: mean survival time, dose: 0.73 mg/kg/injection, schedule: Q03HX006 (ip), vehicle: other 109 % of control | endpoint: mean survival time, dose: 0.75 mg/kg/injection, schedule: Q## X Z (ip), vehicle: other 108 % of control | endpoint: mean survival time, dose: 0.9 mg/kg/injection, schedule: Q07DX003 (ip), vehicle: saline 102 % of control | endpoint: mean survival time, dose: 1.1 mg/kg/injection, schedule: Q01DX001 (ip), vehicle: other 95 % of control | endpoint: mean survival time, dose: 1.1 mg/kg/injection, schedule: Q03HX002 (ip), vehicle: other 112 % of control | endpoint: mean survival time, dose: 1.1 mg/kg/injection, schedule: Q03HX003 (ip), vehicle: other 107 % of control | endpoint: mean survival time, dose: 1.1 mg/kg/injection, schedule: Q03HX005 (ip), vehicle: other 109 % of control | endpoint: mean survival time, dose: 1.5 mg/kg/injection, schedule: Q01DX001 (ip), vehicle: water 109 % of control and 110 % of control | endpoint: mean survival time, dose: 1.62 mg/kg/injection, schedule: Q03HX002 (ip), vehicle: other 108 % of control | endpoint: mean survival time, dose: 1.62 mg/kg/injection, schedule: Q03HX003 (ip), vehicle: other 109 % of control | endpoint: mean survival time, dose: 1.8 mg/kg/injection, schedule: Q07DX003 (ip), vehicle: saline 107 % of control | endpoint: mean survival time, dose: 2.0 mg/kg/injection, schedule: Q01DX001 (ip), vehicle: saline 107 % of control | endpoint: mean survival time, dose: 2.25 mg/kg/injection, schedule: Q01DX001 (ip), vehicle: water 111 % of control | endpoint: mean survival time, dose: 2.25 mg/kg/injection, schedule: Q## X006 (ip), vehicle: other 108 % of control | endpoint: mean survival time, dose: 3.4 mg/kg/injection, schedule: Q01DX009 (ip), vehicle: sodium bicarbonate 96 % of control | endpoint: mean survival time, dose: 3.5 mg/kg/injection, schedule: Q07DX003 (ip), vehicle: saline 111 % of control | endpoint: mean survival time, dose: 4.0 mg/kg/injection, schedule: Q01DX009 (ip), vehicle: other 93 % of control | endpoint: mean survival time, dose: 4.0 mg/kg/injection, schedule: Q01DX009 (ip), vehicle: sodium bicarbonate 95 % of control | endpoint: mean survival time, dose: 4.0 mg/kg/injection, schedule: Q01DX Z (oral), vehicle: saline 109 % of control | endpoint: mean survival time, dose: 4.0 mg/kg/injection, schedule: Q01DX Z (sc), vehicle: saline 109 % of control | endpoint: mean survival time, dose: 4.0 mg/kg/injection, schedule: Q12HX007 (ip), vehicle: other 109 % of control | endpoint: mean survival time, dose: 4.0 mg/kg/injection, schedule: Q#A X Z (ip), vehicle: saline 112 % of control | endpoint: mean survival time, dose: 5.0 mg/kg/injection, schedule: Q01DX009 (ip), vehicle: sodium bicarbonate 105 % of control | endpoint: mean survival time, dose: 6.0 mg/kg/injection, schedule: Q12HX005 (ip), vehicle: other 104 % of control | endpoint: mean survival time, dose: 6.0 mg/kg/injection, schedule: Q12HX006 (ip), vehicle: other 102 % of control | endpoint: mean survival time, dose: 6.3 mg/kg/injection, schedule: Q01DX009 (ip), vehicle: saline 108 % of control | endpoint: mean survival time, dose: 7.2 mg/kg/injection, schedule: Q## X032 (ip), vehicle: water 102 % of control | endpoint: mean survival time, dose: 8.0 mg/kg/injection, schedule: Q01DX006 (ip), vehicle: other 110 % of control | endpoint: mean survival time, dose: 8.0 mg/kg/injection, schedule: Q01DX007 (ip), vehicle: other 111 % of control | endpoint: mean survival time, dose: 8.0 mg/kg/injection, schedule: Q01DX008 (ip), vehicle: other 100 % of control | endpoint: mean survival time, dose: 8.0 mg/kg/injection, schedule: Q01DX009 (oral), vehicle: other 107 % of control | endpoint: mean survival time, dose: 8.0 mg/kg/injection, schedule: Q01DX015 (ip), vehicle: other 102 % of control | endpoint: mean survival time, dose: 8.0 mg/kg/injection, schedule: Q01DX Z (oral), vehicle: saline 97 % of control | endpoint: mean survival time, dose: 9.0 mg/kg/injection, schedule: Q01DX005 (ip), vehicle: other 100 % of control | endpoint: mean survival time, dose: 9.0 mg/kg/injection, schedule: Q12HX004 (ip), vehicle: other 111 % of control | endpoint: mean survival time, dose: 9.0 mg/kg/injection, schedule: Q## X008 (ip), vehicle: other 102 % of control | endpoint: mean survival time, dose: 13.0 mg/kg/injection, schedule: Q01DX004 (ip), vehicle: other 101 % of control | endpoint: mean survival time, dose: 13.0 mg/kg/injection, schedule: Q01DX005 (ip), vehicle: other 102 % of control | endpoint: mean survival time, dose: 13.0 mg/kg/injection, schedule: Q03HX005 (ip), vehicle: other 100 % of control | endpoint: mean survival time, dose: 13.0 mg/kg/injection, schedule: Q12HX004 (ip), vehicle: other 94 % of control | endpoint: mean survival time, dose: 13.5 mg/kg/injection, schedule: Q## X008 (ip), vehicle: other 93 % of control | endpoint: mean survival time, dose: 16.0 mg/kg/injection, schedule: Q03HX008 (ip), vehicle: other 98 % of control | endpoint: mean survival time, dose: 20.0 mg/kg/injection, schedule: Q01DX003 (ip), vehicle: other 101 % of control | endpoint: mean survival time, dose: 20.0 mg/kg/injection, schedule: Q## X008 (ip), vehicle: other 102 % of control | endpoint: mean survival time, dose: 30.0 mg/kg/injection, schedule: Q01DX003 (ip), vehicle: other 102 % of control | endpoint: mean survival time, dose: 30.0 mg/kg/injection, schedule: Q04DX004 (ip), vehicle: other 96 % of control | endpoint: mean survival time, dose: 32.0 mg/kg/injection, schedule: Q01DX001 (sc), vehicle: other 112 % of control | endpoint: mean survival time, dose: 40.0 mg/kg/injection, schedule: Q04DX003 (ip), vehicle: sodium bicarbonate 95 % of control | endpoint: mean survival time, dose: 45.0 mg/kg/injection, schedule: Q01DX002 (ip), vehicle: other 109 % of control | endpoint: mean survival time, dose: 67.0 mg/kg/injection, schedule: Q01DX002 (ip), vehicle: other 98 % of control | endpoint: mean survival time, dose: 67.0 mg/kg/injection, schedule: Q12HX002 (ip), vehicle: other 100 % of control | endpoint: mean survival time, dose: 70.0 mg/kg/injection, schedule: Q04DX002 (ip), vehicle: sodium bicarbonate 99 % of control | endpoint: mean survival time, dose: 112.0 mg/kg/injection, schedule: Q07DX003 (ip), vehicle: saline 97 % of control | endpoint: mean survival time, dose: 128.0 mg/kg/injection, schedule: Q01DX001 (oral), vehicle: other 108 % of control | endpoint: mean survival time, dose: 150.0 mg/kg/injection, schedule: Q03HX002 (ip), vehicle: other 93 % of control | endpoint: mean survival time, dose: 200.0 mg/kg/injection, schedule: Q04DX002 (ip), vehicle: saline 111 % of control | endpoint: mean survival time, dose: 250.0 mg/kg/injection, schedule: Q01DX001 (ip), vehicle: water 112 % of control | endpoint: mean survival time, dose: 256.0 mg/kg/injection, schedule: Q01DX001 (oral), vehicle: other 97 % of control | endpoint: mean survival time, dose: 256.0 mg/kg/injection, schedule: Q01DX001 (sc), vehicle: other 98 % of control | endpoint: mean survival time, dose: 300.0 mg/kg/injection, schedule: Q01DX001 (ip), vehicle: water 105 % of control | endpoint: mean survival time, dose: 375.0 mg/kg/injection, schedule: Q01DX001 (ip), vehicle: water 101 % of control | endpoint: mean survival time, dose: 512.0 mg/kg/injection, schedule: Q01DX001 (oral), vehicle: other 111 % of control | endpoint: mean survival time, dose: 37.5 micrograms/kg/injection, schedule: Q01DX009 (ip), vehicle: saline 104 % of control and 110 % of control | endpoint: mean survival time, dose: 70.0 micrograms/kg/injection, schedule: Q01DX Z (ip), vehicle: carboxymethylcellulose (CMC) 97 % of control | endpoint: mean survival time, dose: 75.0 micrograms/kg/injection, schedule: Q01DX009 (ip), vehicle: saline 107 % of control and 110 % of control | endpoint: mean survival time, dose: 100.0 micrograms/kg/injection, schedule: Q01DX015 (ip), vehicle: other 105 % of control | endpoint: mean survival time, dose: 140.0 micrograms/kg/injection, schedule: Q01DX Z (ip), vehicle: carboxymethylcellulose (CMC) 110 % of control | endpoint: mean survival time, dose: 150.0 micrograms/kg/injection, schedule: Q01DX015 (ip), vehicle: other 108 % of control | endpoint: mean survival time, dose: 6000.0 micrograms/kg/injection, schedule: Q01DX009 (ip), vehicle: Klucel (hydroxypropylcellulose) (HPC) 100 % of control | endpoint: median survival time, dose: 5.0 mg/kg/injection, schedule: Q01DX009 (ip), vehicle: other 110 % of control | endpoint: median survival time, dose: 8.0 mg/kg/injection, schedule: Q01DX001 (ip), vehicle: sodium bicarbonate 111 % of control | endpoint: median survival time, dose: 32.0 mg/kg/injection, schedule: Q01DX001 (ip), vehicle: sodium bicarbonate 110 % of control
